Experimental findings from patent publication US20210353579A1, “HIGH PENETRATION COMPOSITIONS AND USES THEREOF” (Techfields Pharma Co., Ltd., priority 2006, published 2021) are described below.

Values after ≈ are worked out from the molar mass of the structure shown. Like-named read-outs stand apart in the source and are kept apart here.

Data set [1] in a line: Plasma levels after transdermal administration to hairless mice. Format: in vivo. As for the experimental part: Tested compounds (20% solution or suspension in 1 mL isopropanol) are administered transdermally to the skin of intact hairless mice. The plasma levels of the parent compounds are determined by HPLC.
For data set [2], the system named is human skin tissue. Conditions: pH 7.4.
The nature of data set [3]: Plasma levels after transdermal administration to hairless mice. Conditions: mouse, in vivo, po.
Data set [4] has as its system mice. The data set is described as follows: Analgesic activity, acetic acid writhing. Format: in vivo. Particulars: 30 min before acetic acid. Here is the method: The prodrug compounds are administered either transdermally or orally. The parent compounds are administered orally. The number of writhing that occurred when mice are administered the acetic acid solution are counted, and the rate of inhibition based on the control group which was not pretreated with any test compounds is calculated. […] The A group is the control group.
For orientation: Writhing tests count abdominal constrictions after an irritant is injected.

The next data set relates to rats. In words: Antipyretic activity, E. coli suspension as pyrogen. Format: in vivo. Conditions: in °C (unit assumed). As for the experimental part:
Rats are administered with sterilized E. coli suspension as a pyrogen. Each group of rats are administered with a prodrug compounds or parent compounds at a dosage specified below. The prodrug compounds are administered either orally or transdermally. The parent compounds are administered orally.

The next data set concerns Chinese white rabbits. The data set is described as follows: Malassezia-induced lesions similar to psoriasis. Format: in vivo, rabbit. Particulars: 5% aqueous solution twice per day, 10 days after application. An excerpt:
Heavy suspensions of Malassezia [Rosenberg, E. W., et al., Mycopathologia, 72, 147-154 (1980)] were applied to the shaved skin on the backs of the Chinese white rabbits (n=4×6) twice (at 7 am and 7 pm) per day for 2 weeks, lesions similar to psoriasis resulted.

In data set [5] the test system is Human colon cancer cells (LS174J). In words: Human colon cancer xenograft in nude mice, topical. Particulars: day 30, about 30 μl of 5% solution (1.5 mg) topically applied. An excerpt: Human colon cancer cells (LS174J, 2-3 mm^3 of tumor tissue was used in each mouse) are subcutaneously xenografted into the front leg of nude mice (BALB).
(In general: In xenograft studies the graft and the host belong to different species.)

Data set [6] relates to human skin tissue. In words: In vitro penetration rate through human skin, modified Franz cells. Conditions: 20% solution in 0.2 M phosphate buffer pH 7.4, human skin, Franz cell.
In data set [7] the test system is mice. The data set is described as follows: Analgesic activity, D'Amour-Smith method (tail heat, pain threshold). Conditions: 200 mg/kg transdermally vs 200 mg/kg diflunisal orally. Format: in vivo. As for the experimental part: After the tested compounds are administered (the dosages for each test compounds are specified in FIG. 3, prodrug compounds are administered orally and transdermally respectively in different groups, while parent compounds are administered orally) to a group of mice (six mice every group), the tails of mice are exposed to heat and the prolongation time of pain threshold is determined. […] The prodrug compounds show similar analgesic activities when the same dosages are administered orally or transdermally. (FIG. 3)

A further data set concerns C57/BL6 mice, MPTP. In words: MPTP Parkinson's disease mice: GABA and Glu in substantia nigra and striatum. Particulars: mouse, in vivo.
The nature of data set [8]: Solubility in water / aqueous solubility of HPPs and parent drugs. Conditions: water.
Data set [9] is described as follows: Distribution of prodrug and metabolites in tissues after application to the back of killed rats. Format: in vivo. Particulars: Wistar, rat, 50 mg/kg, 3 h after 50 mg/kg prodrug citric acid salt on the back of killed rat, 37° C. As for the experimental part: The mixture was centrifuged for 5 minutes at 16,000 rpm. The supernatant (2 ml) was collected and evaporated to dryness.

[10] abbreviates: transdermal, 20% in 1 mL isopropanol, hairless mice.
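For LD50 of HPP in this document: acute toxicity in rats expressed as LD50, determined for both prodrugs and their parent compounds.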
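For LD50 of parent drug in this document: acute toxicity in rats expressed as LD50, determined for both prodrugs and their parent compounds.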

Method for C57/BL6 mice, MPTP: Group A mice were i.p. injected 0.4% sodium carboxymethylcellulos (15 ml/kg per day) for 7 days. Group B and C mice were i.p. injected N-methyl-4-phenyl-1,2,3,6-tetrahydropyridine (MPTP, 30 mg/kg per day) for 7 days. The mice were divided into 2 groups. […] All mice were killed after the last treatment and the brain tissues were quickly frozen at −80° C. […] The contents of GABA and Glu in the striatum and SN were shown by high performance amino acid auto-analyser.

In the case of `Nc1c(CC(=O)O)cccc1C(=O)c1ccc(Br)cc1` [Bromofenac, bromofenac], the “Peak plasma concentration after parent compound” value in [1] (mouse, in vivo) was found to be 0.1 mg/L. For the same compound, in the data set on human skin tissue [2], the “In vitro penetration rate (apparent flux), parent compounds” value is given as 10 μg/cm^2/h. For the same compound, the “t, time to peak plasma level after parent compound” value (from here on “t, time … after parent compound”) in data set [3] is 1 to 2 h.

For `O=C(O)CC(O)c1ccc(-c2ccc(Cl)cc2)o1` (stereo not shown) [Orpanoxin, orpanoxin], in data set [1] (mouse, in vivo), the “Peak plasma concentration after parent compound” value was determined as 10 mg/L. Further, the “In vitro penetration rate (apparent flux), parent compounds” value with human skin tissue [2] is on record as 30 μg/cm^2/h. In data set [3], the “t, time … after parent compound” value lay within 2 to 4 h.

As to `CN1C(C(=O)Nc2nccs2)=C(O)c2ccccc2S1(=O)=O` [Sudoxiam, sudoxiam], the “Peak plasma concentration after parent compound” value in data set [1] (mouse, in vivo) is reported as 0.1 mg/L. For the same compound, in the data set with human skin tissue [2], the “In vitro penetration rate (apparent flux), parent compounds” value was less than 1 μg/cm^2/h. The “t, time … after parent compound” value in data set [3] is 2 to 4 h.

In the case of `CC(=O)O.CCN(CC)CCOC(=O)Cc1ccc(C(=O)c2ccc(C)cc2)n1C` [diethylaminoethyl 1-methyl-5-(4-methylbenzoyl)-1H-pyrrole-2-acetate.AcOH], the “LD50 of HPP” value in the data set on rat (rat, in vivo) is 600 mg/kg. In the data set with mice [4] (100 mg/kg transdermally), the “% (rate of writhing inhibition)” value turned out to be 51% and the “No. of Writhing” value is reported as 17.1. Moreover, in [1] (setting [10]), the “Peak plasma concentration of parent compound after prodrug compound” value stood at 20 mg/L and the “t, time to peak plasma level of parent compound after prodrug compound” value worked out at 50 min. In the data set on rats (100 mg/kg transdermally), the “body temperature, t = 0 min” value was 37.27 ± 0.06; the “body temperature, t = 90 min” value came out at 36.71 ± 0.05; the “body temperature, t = 180 min” value was 36.65 ± 0.08; the “body temperature, t = 270 min” value amounted to 36.59 ± 0.07. The “lesions similar to psoriasis” value in the data set on Chinese white rabbits is on record as “the lesions were resolved”. In data set [5], this compound gave a Mouse weight of 21 ± 2 g and a Tumor size of 610 ± 200 mm^3. In the data set with human skin tissue [6], the “In vitro penetration rate (apparent flux), prodrug compounds” value is 1000 μg/cm^2/h.

With `CC(=O)O.CCN(CC)CCOC(=O)c1cc(-c2ccc(F)cc2F)ccc1O` [diethylaminoethyl 5-(2,4-difluorophenyl) salicylate.AcOH], in the data set on rat (rats), the “LD50 of HPP” value is 1000 mg/kg. Besides, in the data set on mice [4] (50 mg/kg transdermally), the “% (rate of writhing inhibition)” value stood at 62% and the “No. of Writhing” value came to 13.2. For the same compound, in the data set with mice [4] (100 mg/kg transdermally), the “% (rate of writhing inhibition)” value was 71% and the “No. of Writhing” value is recorded as 10.2. In addition, in the data set with mice [7], the “analgesic activity, prolongation time of pain threshold of mice tails” value was “stronger analgesic activity”. Besides, in data set [1] (mouse, in vivo), the “Peak plasma concentration of parent compound after prodrug compound” value is 50 mg/L and the “t, time to peak plasma level of parent compound after prodrug compound” value was 30 min. Moreover, in the data set on rats (100 mg/kg transdermally), the “body temperature, t = 0 min” value came out at 37.22 ± 0.07; the “body temperature, t = 90 min” value was found to be 36.42 ± 0.06; the “body temperature, t = 180 min” value is 36.40 ± 0.05; the “body temperature, t = 270 min” value worked out at 36.47 ± 0.08. Besides, in the data set on rats (150 mg/kg transdermally), the “body temperature, t = 0 min” value was found to be 37.26 ± 0.08; the “body temperature, t = 90 min” value came to 36.20 ± 0.05; the “body temperature, t = 180 min” value was 36.30 ± 0.07; the “body temperature, t = 270 min” value is 36.31 ± 0.08. Moreover, the “In vitro penetration rate (apparent flux), prodrug compounds” value in the data set on human skin tissue [2] turned out to be 100 μg/cm^2/h.

`NC(=O)C[S+]([O-])C(c1ccccc1)c1ccccc1` (stereo not shown) [modafinil, reference compound]: the “increase of nigrostriatal Glu release induced by MPTP” value with C57/BL6 mice, MPTP is recorded as “did not change”.

As to `O=C(O)c1ccccc1O` [salicylic acid], the “t, time … after parent compound” value in data set [1] (parent compound administered (time when taken orally)) lay within 1 to 2 h. Besides, the “Peak plasma concentration after parent compound” value in data set [1] (parent compound administered, hairless mice) is listed as 0.1 mg/L. In addition, the “In vitro penetration rate (apparent flux), parent compounds” value in the data set with human skin tissue [2] (human, 20 %) is recorded as less than 1 μg/cm^2/h. The solubility in [8] is 0.1 mg/mL (≈ 724 µM). For the same compound, the concentration at 3 h worked out at 35000 ± 6000 ng/g in data set [9] (read-out: amount in Bone), 30000 ± 6000 ng/g in [9] (read-out: amount in Brain), 45000 ± 8000 ng/g in data set [9] (read-out: amount in Liver) and 65 ± 10 µg/mL in data set [9] (read-out: amount in Plasma).

On to “salicylsalicylic acid [Salsalate, reference compound]”, for which the “LD50 of parent drug” value in the data set with rat (rats) is 1500 mg/kg. The “Peak plasma concentration after parent compound” value in data set [1] (mouse, in vivo) came to 0.1 mg/L. Also, in the data set on human skin tissue [2], the “In vitro penetration rate (apparent flux), parent compounds” value was less than 1 μg/cm^2/h. For the same compound, the “t, time … after parent compound” value in [3] fell in the range of 1 to 2 h.

The term solubility denotes how much of the substance goes into solution per volume.
